Laboratory results published in ChEMBL document CHEMBL4346704, “Novel symmetric bis-benzimidazoles: Synthesis, DNA/RNA binding and antitrypanosomal activity” (Eur J Med Chem, 2019).
Activity calls are given as the source filed them. No cut-off for these calls is given here.

How the values were obtained:
[1] = Binding affinity to polyA-polyU dsRNA (unknown origin) assessed as change in melting temperature at 0.1 ratio of compound to RNA by spectrophotometric analysis; type: nucleic-acid assay
[2] = Binding affinity to polyA-polyU dsRNA (unknown origin) assessed as hypochromic effect by UV-vis spectrophotometric method relative to control; type: nucleic-acid assay; design: concentration or dose not given beside the values
[3] = test system: Poly(dA-dU)oligonucleotide; assay: Binding affinity to polyA-polyU dsRNA (unknown origin) assessed as binding constant by UV-vis spectrophotometric method; type: nucleic-acid assay
Calf thymus DNA [4] = assay: Binding affinity to calf thymus DNA assessed as conformational change by circular dichroism analysis; type: nucleic-acid assay; conditions: Bos taurus
Calf thymus DNA [5] = assay: Ratio of compound concentration to polynucleotide phosphate concentration for binding affinity to calf thymus DNA; type: nucleic-acid assay; conditions: Bos taurus
Calf thymus DNA [6] = assay: Binding affinity to calf thymus DNA assessed as change in melting temperature at compound to calf thymus DNA polynucleotide ratio of 0.1 by spectrophotometric analysis; type: nucleic-acid assay; conditions: Bos taurus
Calf thymus DNA [7] = assay: Binding affinity to calf thymus DNA assessed as hypochromic effect by UV-vis spectrophotometric method relative to control; type: nucleic-acid assay; design: concentration or dose not given beside the values; conditions: Bos taurus
Calf thymus DNA [8] = assay: Binding affinity to calf thymus DNA by UV-vis spectrophotometric method; type: nucleic-acid assay; conditions: Bos taurus
[9] = Ratio of compound concentration to polynucleotide phosphate concentration for binding affinity to polyA-polyU dsRNA (unknown origin); type: nucleic-acid assay
[10] = test system: Poly(dA-dU)oligonucleotide; assay: Binding affinity to polyA-polyU dsRNA (unknown origin) assessed as change in melting temperature at 0.5 ratio of compound to RNA by spectrophotometric analysis; type: nucleic-acid assay
[11] = test system: Poly(dA-dU)oligonucleotide; assay: Binding affinity to polyA-polyU dsRNA (unknown origin) assessed as change in melting temperature at 0.3 ratio of compound to RNA by spectrophotometric analysis; type: nucleic-acid assay
Calf thymus DNA [12] = assay: Binding affinity to calf thymus DNA assessed as change in melting temperature at compound to calf thymus DNA polynucleotide ratio of 0.5 by spectrophotometric analysis; type: nucleic-acid assay; conditions: Bos taurus
Trypanosoma brucei = assay: Antitrypanosomal activity against Trypanosoma brucei 221 incubated for 48 hrs by resazurin based fluorescence assay; type: functional, organism-based; conditions: Trypanosoma brucei, 221, 48 h
Calf thymus DNA [13] = assay: Binding affinity to calf thymus DNA assessed as change in melting temperature at compound to calf thymus DNA polynucleotide ratio of 0.3 by spectrophotometric analysis; type: nucleic-acid assay; conditions: Bos taurus
L6 = assay: Cytotoxicity against rat L6 cells incubated for 6 days by resazurin based fluorescence assay; type: cell-based; conditions: L6, 144 h
[14] = test system: Poly(dA-dU)oligonucleotide; assay: Binding affinity to polyA-polyU dsRNA (unknown origin) assessed as conformational change by circular dichroism analysis; type: nucleic-acid assay

Row | SMILES | ΔTm [1] [°C] | Activity [2] [%] | log Ks [3] | Activity (Calf thymus DNA [4]) | Ratio (Calf thymus DNA [5]) | ΔTm (Calf thymus DNA [6]) [°C] | Activity (Calf thymus DNA [7]) [%] | log Ks (Calf thymus DNA [8]) | Ratio [9] | ΔTm [10] [°C] | ΔTm [11] [°C] | ΔTm (Calf thymus DNA [12]) [°C] | IC50 (Trypanosoma brucei) [µM] | IC90 (Trypanosoma brucei) [µM] | ΔTm (Calf thymus DNA [13]) [°C] | IC50 (L6) [µM] | Activity [14]
1 | Fc1ccc2[nH]c(-c3ccc(Cn4cc(COCc5cn(Cc6ccc(-c7nc8cc(F)ccc8[nH]7)o6)nn5)nn4)o3)nc2c1 | 1 | 51 | 6.43 | inactive | 0.47 | 0 | 35 | 5.93 | 0.35 | 1 | 1 | 0 | 7.9 | > 25 | 0.5 |  | 
2 | Cl.Cl.N=C(N)c1ccc2[nH]c(-c3ccc(Cn4cc(COCc5cn(Cc6ccc(-c7nc8cc(C(=N)N)ccc8[nH]7)o6)nn5)nn4)o3)nc2c1 | 2.2 | 24 | 6.65 | Active | 0.47 | 9.2 | 37 | 5.93 | 0.43 | 3.3 | 3.5 | 12.5 | 3.3 | 4.7 | 10.4 | 88.6 | 
3 | Clc1ccc2[nH]c(-c3ccc(Cn4cc(COc5ccc(-c6ccc(OCc7cn(Cc8ccc(-c9nc%10cc(Cl)ccc%10[nH]9)o8)nn7)cc6)cc5)nn4)o3)nc2c1 |  | 15 |  | inactive | 0.3 |  | 16 | 4 |  |  | 0 |  | 0.37 | 9.7 | 0 | 30.4 | 
4 | Clc1ccc2[nH]c(-c3ccc(Cn4cc(COCc5cn(Cc6ccc(-c7nc8cc(Cl)ccc8[nH]7)o6)nn5)nn4)o3)nc2c1 | 1 | 52 | 5.12 | inactive | 0.21 | 0.7 | 35 | 5.21 | 0.19 | 0.6 | 0.6 | 2.6 | 6.4 | 11.8 | 1.2 |  | 
5 | c1cc(-c2ccc(OCc3cn(Cc4ccc(-c5nc6cc(C7=NCCN7)ccc6[nH]5)o4)nn3)cc2)ccc1OCc1cn(Cc2ccc(-c3nc4cc(C5=NCCN5)ccc4[nH]3)o2)nn1 |  | 8 |  | Active |  |  | 9 |  |  |  | 0 |  | > 10 |  | 2.6 |  | Active
6 | c1ccc2[nH]c(-c3ccc(Cn4cc(CCCc5cn(Cc6ccc(-c7nc8ccccc8[nH]7)o6)nn5)nn4)o3)nc2c1 | 0 | 10 | 6.54 | inactive | 0.19 | 2.6 | 45 | 6.55 | 0.13 | 0 | 0 | 3.2 | > 15 |  | 1.2 |  | 
7 | c1ccc2[nH]c(-c3ccc(Cn4cc(COc5ccc(-c6ccc(OCc7cn(Cc8ccc(-c9nc%10ccccc%10[nH]9)o8)nn7)cc6)cc5)nn4)o3)nc2c1 |  | 12 |  | inactive | 0.3 |  | 14 | 4 |  |  | 0 |  | > 10 |  | 0 |  | 
8 | c1ccc2[nH]c(-c3ccc(Cn4cc(COc5ccc(OCc6cn(Cc7ccc(-c8nc9ccccc9[nH]8)o7)nn6)cc5)nn4)o3)nc2c1 | 0 | 22 | 5.5 | inactive | 0.1 | 2.8 | 35 | 6.18 | 0.3 | 0 | 0 | 2.6 | > 15 |  | 3.2 |  | 
9 | c1ccc2[nH]c(-c3ccc(Cn4cc(COCc5cn(Cc6ccc(-c7nc8ccccc8[nH]7)o6)nn5)nn4)o3)nc2c1 | 0.6 | 41 | 5.76 | inactive | 0.29 | 0.6 | 36 | 6.22 | 0.31 | 0.6 | 0 | 1.1 | > 15 |  | 0.7 |  | 
10 | Clc1ccc2[nH]c(-c3ccc(Cn4cc(COc5ccc(OCc6cn(Cc7ccc(-c8nc9cc(Cl)ccc9[nH]8)o7)nn6)cc5)nn4)o3)nc2c1 | 0 | 7 |  | inactive | 0.65 | 0.7 | 27 | 6.33 |  | 0 | 0 | 2 | 1.4 | 2.5 | 1.5 | > 270 | 
11 | CC(C)NC(=N)c1ccc2[nH]c(-c3ccc(Cn4cc(COc5ccc(-c6ccc(OCc7cn(Cc8ccc(-c9nc%10cc(C(=N)NC(C)C)ccc%10[nH]9)o8)nn7)cc6)cc5)nn4)o3)nc2c1 |  | < 5 |  | Active |  |  | 8 |  |  |  | 0 |  | > 10 |  | 2.1 |  | Active
12 | Fc1ccc2[nH]c(-c3ccc(Cn4cc(CCCc5cn(Cc6ccc(-c7nc8cc(F)ccc8[nH]7)o6)nn5)nn4)o3)nc2c1 | 0.8 | 31 | 4.94 | inactive | 0.15 | 0.8 | 46 | 6.56 | 0.5 | 2 | 1.3 | 2 | 4 | 8.9 | 1.3 | 221 | 
13 | Fc1ccc2[nH]c(-c3ccc(Cn4cc(COc5ccc(OCc6cn(Cc7ccc(-c8nc9cc(F)ccc9[nH]8)o7)nn6)cc5)nn4)o3)nc2c1 | 0 | 11 |  | inactive | 0.17 | 0.5 | 25 | 5.92 |  | 0 | 0 | 3.4 | 3.4 | 6.7 | 1.2 | 219 | 
14 | Clc1ccc2[nH]c(-c3ccc(Cn4cc(CCCc5cn(Cc6ccc(-c7nc8cc(Cl)ccc8[nH]7)o6)nn5)nn4)o3)nc2c1 | 0 | 34 | < 4 | inactive | 0.05 | 2.1 | 27 | 7.04 | 0.5 | 0 | 0 | 2.5 | 3 | 7.2 | 4.1 | > 300 | 
15 | CC(C)NC(=N)c1ccc2[nH]c(-c3ccc(Cn4cc(CCCc5cn(Cc6ccc(-c7nc8cc(C(=N)NC(C)C)ccc8[nH]7)o6)nn5)nn4)o3)nc2c1.Cl.Cl | 0.9 | 32 | 5.69 | Active | 0.09 | 13.8 | 24 | 6.33 | 0.58 | 0.8 | 0.5 | 14.8 | 5.1 | 8.2 | 14.5 | 104 | 
16 | N=C(N)c1ccc2[nH]c(-c3ccc(Cn4cc(COc5ccc(-c6ccc(OCc7cn(Cc8ccc(-c9nc%10cc(C(=N)N)ccc%10[nH]9)o8)nn7)cc6)cc5)nn4)o3)nc2c1 |  | < 5 |  | Active |  |  | 8 |  |  |  | 0.9 |  | > 10 |  |  |  | Active
17 | CC(C)NC(=N)c1ccc2[nH]c(-c3ccc(Cn4cc(COCc5cn(Cc6ccc(-c7nc8cc(C(=N)NC(C)C)ccc8[nH]7)o6)nn5)nn4)o3)nc2c1 | 1.3 | 13 | 6.16 | Active | 0.67 | 8.1 | 21 | 5.68 | 0.3 | 1.6 | 2 | 11.1 | 7.9 | 10.8 | 9.7 |  | 
18 | Cl.Cl.N=C(N)c1ccc2[nH]c(-c3ccc(Cn4cc(CCCc5cn(Cc6ccc(-c7nc8cc(C(=N)N)ccc8[nH]7)o6)nn5)nn4)o3)nc2c1 | 1.5 | 46 | 5.7 | Active | 0.05 | 13.6 | 13 | 6.61 | 0.3 | 9.3 | 0.6 | 13.8 | 3.6 | 5.5 | 13 | 198 | 
